Data on ten molecules can be found in ChEMBL document CHEMBL1201862, “PubChem BioAssay data set” (2004).

Holding throughout (assay): DTP human tumour cell line panel, 48 h
Assay [1] relates to SR.
For assay [2], the system named is SK-MEL-2.
Assay [3] has as its system SK-MEL-5.
Assay [4] concerns KM12.
Assay [5] has as its system UACC-257.
Assay [6] deals with SK-MEL-28.
Assay [7] deals with T47D.
Assay [8] relates to MDA-MB-231.
Assay [9] has as its system ACHN.
The subject of assay [10] is HOP-62.
For assay [11], the system named is IGROV-1.
Assay [12] deals with DU-145.
Assay [13] deals with Malme-3M.
The subject of assay [14] is OVCAR-5.
In assay [15] the test system is HT-29.
Assay [16] concerns OVCAR-8.
Assay [17] has as its system MOLT-4.
The test system of assay [18] is LOX IMVI.
For assay [19], the system named is MCF7.
The test system of assay [20] is HL-60.

The structures appear in SMILES notation.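 96-well plates; 48 h exposure; 5 concentrations. Endpoints by linear interpolation between flanking doses. Not reached: highest tested concentration assigned. GI50 = concentration required for 50% inhibition of growth.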 The source made the active and inactive calls. No stated cut-off is given here; in the data, active = GI50 up to about 1.1 µM and inactive = higher. Bounds are passed on as bounds.

Consider `CC1CC[C@@]2(OC1)OC1C[C@H]3[C@@H]4CC=C5C[C@@H](OC6OC(CO)C(OC7OC(CO)C(O)C(O)C7O)C(O)C6OC6OC(C)C(O)C(O)C6O)CC[C@]5(C)[C@H]4CC[C@]3(C)C1[C@@H]2C` (stereo partly drawn), for which the GI50 (usually the concentration that inhibits growth by half) in assay [1] is 0.402 µM (active); in [2] it was 0.759 µM (active); in [3], 0.543 µM (active); in assay [4], 0.547 µM (active); in assay [5] it was 0.526 µM (active); in [6], 0.53 µM (active). In addition, the GI50 was 0.513 µM (active) in [7]; 0.435 µM (active) in assay [8]; 1.24 µM (inactive) in assay [9]; 0.593 µM (active) in [10]; 0.516 µM (active) in assay [11]; 0.476 µM (active) in assay [12]. The GI50 in assay [13] was 0.634 µM (active); in assay [14] it was 1.42 µM (inactive); in assay [15], 0.475 µM (active); in assay [16], 0.659 µM (active); in assay [17], 0.434 µM (active); in assay [18], 0.462 µM (active). For the same molecule, the figures for the GI50 in [19] and in assay [20] were 0.587 µM (active) and 0.753 µM (active), respectively.
As to `CN/C(=N\N)NS(=O)(=O)c1cc(C)c(Cl)cc1S`, the GI50 in [1] is 44 µM (inactive); in assay [2], 69.2 µM (inactive); in [3], 30.7 µM (inactive); in assay [4], 76 µM (inactive); in [5], > 100 µM (inactive); in [6] it was > 100 µM (inactive). The GI50 in assay [7] was 24.4 µM (inactive); in assay [8], > 100 µM (inactive); in [10] it was > 100 µM (inactive); in assay [11], 86.3 µM (inactive); in assay [12] it was > 100 µM (inactive); in assay [13], 46.8 µM (inactive). Moreover, the GI50 in assay [14] was 93.5 µM (inactive); in assay [15], 40.4 µM (inactive); in [16], 96.2 µM (inactive); in [17], > 10 µM (inactive); in assay [18], 96.4 µM (inactive); in assay [19], 62.4 µM (inactive). Moreover, the GI50 in assay [20] is 41.5 µM (inactive).
As for `Nc1nc(N)c(CCCCc2ccc([N+](=O)[O-])cc2)c(N)n1`, the GI50 was 10.6 µM (inactive) in assay [1]; > 100 µM (inactive) in [2]; 16.7 µM (inactive) in assay [3]; 36.3 µM (inactive) in assay [4]; > 96.2 µM (inactive) in assay [5]; > 100 µM (inactive) in assay [7]. In addition, the GI50 in [8] is > 100 µM (inactive); in assay [9] it was 27.9 µM (inactive); in assay [10] it was > 100 µM (inactive); in assay [11], 23.6 µM (inactive); in assay [12], 76 µM (inactive); in assay [13] it was 41.9 µM (inactive). Also, the GI50 in assay [14] is 78.7 µM (inactive); in assay [15], 7.67 µM (inactive); in assay [16], 22.3 µM (inactive); in assay [17] it was 8.22 µM (inactive); in [18], 6.62 µM (inactive); in assay [19], > 100 µM (inactive). Moreover, the GI50 in assay [20] was 2.84 µM (inactive).
With `C=C(C)C1CC[C@@](C)(O)[C@H](C#N)C1` (stereo partly drawn), the GI50 in assay [1], in assay [2], in assay [3], in assay [4], in assay [5] and in assay [6] was > 100 µM (inactive) each time. For the same molecule, the GI50 in assay [7], in assay [8], in assay [9], in assay [10], in [12] and in assay [13] was > 100 µM (inactive) in each case. Moreover, the GI50 in assay [14], in assay [15], in [16], in [17], in assay [18] and in assay [19] was > 100 µM (inactive) in each case. Besides, in assay [20], the GI50 is > 100 µM (inactive).
On to `COC(=O)c1cc2c(cc1Cl)Sc1nnc(Nc3ccc(C)cc3)n1S2(=O)=O`, for which the GI50 in assay [1] is 2.12 µM (inactive); in [2] it was 2.9 µM (inactive); in assay [3], 13.8 µM (inactive); in assay [4], 5.57 µM (inactive); in assay [5] it was 12.2 µM (inactive); in [6] it was 9.33 µM (inactive). Besides, the GI50 is 1.75 µM (inactive) in assay [7]; 10.6 µM (inactive) in assay [8]; 3.48 µM (inactive) in [9]; 8.89 µM (inactive) in assay [10]; 2.15 µM (inactive) in assay [11]; 2.65 µM (inactive) in assay [12]. Also, the GI50 was 11 µM (inactive) in [13]; 17.1 µM (inactive) in [14]; 3.92 µM (inactive) in assay [15]; 10.5 µM (inactive) in [16]; 2.94 µM (inactive) in assay [17]; 3.72 µM (inactive) in [19]. In addition, the GI50 in assay [20] was 3.46 µM (inactive).
With `CCc1cn2c(/C=N/N=C(N)N)c(-c3cc(C)c(Cl)cc3Cl)nc2s1`, the GI50 in assay [1] is 1.56 µM (inactive); in assay [2] it was 1.82 µM (inactive); in [3], 1.63 µM (inactive); in [4], 1.58 µM (inactive); in [5], 1.4 µM (inactive); in [6], 1.48 µM (inactive). Moreover, the GI50 in assay [7] was 1.4 µM (inactive); in assay [8] it was 0.865 µM (active); in assay [9], 1.68 µM (inactive); in assay [11], 1.69 µM (inactive); in [12] it was 1.64 µM (inactive); in assay [13] it was 1.37 µM (inactive). Moreover, the GI50 in assay [14] is 1.61 µM (inactive); in [15], 1.22 µM (inactive); in assay [16] it was 1.58 µM (inactive); in assay [18] it was 1.35 µM (inactive); in assay [19] it was 1.71 µM (inactive); in [20], 1.82 µM (inactive).
`COc1c(O)cc(/C=C/c2cc(O)cc3c2[C@@]2(C(=O)O3)c3c(O)cc(O)cc3OC2c2cccc(O)c2)cc1O` (stereo partly drawn): the GI50 in assay [1] was 1.57 µM (inactive); in assay [2] it was 94 µM (inactive); in assay [3], 32 µM (inactive); in assay [4], 39.1 µM (inactive); in assay [5], > 100 µM (inactive); in assay [6] it was 35.2 µM (inactive). For the same molecule, the GI50 in [7] is 65.9 µM (inactive); in assay [8], > 100 µM (inactive); in assay [9] it was 27.4 µM (inactive); in [10], > 100 µM (inactive); in assay [11], 16.2 µM (inactive); in assay [12], 72.1 µM (inactive). For the same molecule, the GI50 in [13] is > 100 µM (inactive); in assay [15] it was 30.5 µM (inactive); in assay [16], 23.7 µM (inactive); in assay [17] it was 1.3 µM (inactive); in assay [18] it was 43.7 µM (inactive); in assay [19], 48.6 µM (inactive). For the same molecule, the GI50 in [20] is 28 µM (inactive).
Regarding `Cc1cc(S(=O)(=O)NC2=Nc3cccc4cccc(c34)N2)c(S)cc1Cl`, the GI50 in assay [1] was 60 µM (inactive); in [2] it was > 100 µM (inactive); in [3], 60.5 µM (inactive); in [4], 48.1 µM (inactive); in [5] it was > 100 µM (inactive); in [6], > 100 µM (inactive). Also, the GI50 in assay [7] was > 100 µM (inactive); in [8], > 100 µM (inactive); in [9] it was > 100 µM (inactive); in assay [11], 63.5 µM (inactive); in [12] it was > 100 µM (inactive); in assay [13] it was > 100 µM (inactive). Besides, the GI50 in assay [14] is > 100 µM (inactive); in assay [16], > 100 µM (inactive); in assay [17], 41.6 µM (inactive); in [18], 70.5 µM (inactive); in assay [19], > 100 µM (inactive); in [20], 77.4 µM (inactive).
As to `CCCCCCCCCCOCCOCCOCCOCCCCC(O)CCCCCCCC1=C[C@H](C)OC1=O` (stereo partly drawn), the GI50 in [1] is 0.671 µM (active); in assay [2], 12.5 µM (inactive); in [3], 0.76 µM (active); in assay [4], 10.6 µM (inactive); in assay [5] it was 9.14 µM (inactive); in assay [6], 12.2 µM (inactive). Also, the GI50 in assay [7] was 8.39 µM (inactive); in assay [8], 14.1 µM (inactive); in assay [9], 11.7 µM (inactive); in assay [11], 14.4 µM (inactive); in [12], 14.7 µM (inactive); in assay [13], 19.6 µM (inactive). Also, the GI50 was 15.7 µM (inactive) in [14]; 10.7 µM (inactive) in assay [15]; 13.4 µM (inactive) in [16]; 2.83 µM (inactive) in assay [17]; 4.98 µM (inactive) in [18]; 5.62 µM (inactive) in assay [19]. In addition, the GI50 in assay [20] is 0.863 µM (active).
Turning to `C=C1CCCCCCCCCCC1[S+]([O-])c1ccccc1` (stereo not drawn), the GI50 in assay [1] is 25.2 µM (inactive); in [2], > 100 µM (inactive); in [3], 29.5 µM (inactive); in [5] it was 47.1 µM (inactive); in assay [6] it was 50.2 µM (inactive); in assay [7], > 100 µM (inactive). For the same molecule, the GI50 in assay [8] is 24.5 µM (inactive); in assay [9], 29.8 µM (inactive); in assay [10], 60.8 µM (inactive); in assay [11], 16 µM (inactive); in [12], 49.1 µM (inactive); in assay [13] it was > 100 µM (inactive). For the same molecule, the GI50 is 49.8 µM (inactive) in assay [14]; 40.3 µM (inactive) in assay [15]; 21.8 µM (inactive) in assay [17]; 28.8 µM (inactive) in [18]; 30.1 µM (inactive) in assay [19]; 19.1 µM (inactive) in [20].
